≈ marks a conversion by molar mass, not a printed value.
Experiments:
Bacillus subtilis = test: Antibacterial activity against Bacillus subtilis E168 assessed as inhibition of bacterial growth incubated for 18 hrs by 2-fold serial dilution method; type: functional
Staphylococcus aureus = test: Antibacterial activity against Staphylococcus aureus ATCC 43300 assessed as inhibition of bacterial growth incubated for 18 hrs by 2-fold serial dilution method; type: functional
Escherichia coli = test: Antibacterial activity against Escherichia coli ATCC35218 assessed as inhibition of bacterial growth incubated for 18 hrs by 2-fold serial dilution method; type: functional
A549 = test: Cytotoxicity against human A549 cells assessed as reduction in cell viability incubated for 72 hrs by CCK8 assay; type: functional, cell-based; settings: A549, 72 h
K562 = test: Cytotoxicity against human K562 cells assessed as reduction in cell viability incubated for 72 hrs by CCK8 assay; type: functional, cell-based; settings: K562, 72 h
[1] = test system: Staphylococcus epidermidis; test: Antibacterial activity against Staphylococcus epidermidis ATCC12228 assessed as inhibition of bacterial growth incubated for 18 hrs by 2-fold serial dilution method; settings: ATCC12228, 18 h

Row | MIC (Bacillus subtilis) [µM] | MIC (Staphylococcus aureus) [µM] | MIC (Escherichia coli) [µM] | MIC [1] [µM] | SMILES | IC50 (A549) [µM] | IC50 (K562) [µM]
1 | 48 (≈ 70.5 µg/mL) | 32 (≈ 47 µg/mL) | > 128 | 64 (≈ 94.1 µg/mL) | C/C=C\c1ccccc1/C=C/C(=O)N[C@@H]1C(=O)N[C@@H](C)C(=O)N[C@@H](CC(=O)O)C(=O)NCC(=O)N[C@@H]([C@@H](O)c2ccccc2)C(=O)N2CCC[C@H]2C(=O)N[C@@H]([C@@H](O)c2ccc(OC)cc2)C(=O)N[C@H](Cc2c[nH]c3ccccc23)C(=O)N[C@@H](O)C(=O)N[C@H](CC(C)C)C(=O)N[C@H]([C@@H](O)C(C)C)C(=O)O[C@@H]1C | > 10 | > 10
2 | 32 (≈ 37.4 µg/mL) | 32 (≈ 37.4 µg/mL) | > 128 | 64 (≈ 74.7 µg/mL) | C/C=C\c1ccccc1/C=C/C(=O)N[C@H](C(=O)N[C@@H](C)C(=O)N[C@H](C(N)=O)[C@H](C)C(=O)N1CC(=O)N[C@@H]([C@@H](O)c2ccccc2)C(=O)N2CCC[C@H]2C(=O)N[C@@H]([C@@H](O)c2ccc(OC)cc2)C(=O)N[C@H](Cc2c[nH]c3ccccc23)C1=O)[C@@H](C)O | > 10 | > 10
3 | 16 (≈ 18.4 µg/mL) | 16 (≈ 18.4 µg/mL) | > 128 | 16 (≈ 18.4 µg/mL) | C/C=C\c1ccccc1/C=C/C(=O)N/C(=C\C)C(=O)N[C@@H](C)C(=O)N[C@H](C(N)=O)[C@H](C)C(=O)N1CC(=O)N[C@@H]([C@@H](O)c2ccccc2)C(=O)N2CCC[C@H]2C(=O)N[C@@H]([C@@H](O)c2ccc(OC)cc2)C(=O)N[C@H](Cc2c[nH]c3ccccc23)C1=O | > 10 | > 10
4 | 64 (≈ 73.8 µg/mL) | 64 (≈ 73.8 µg/mL) | > 128 | 128 (≈ 148 µg/mL) | C/C=C\c1ccccc1/C=C/C(=O)N[C@H](C(=O)N[C@@H](C)C(=O)N[C@@H](CC(=O)N1CC(=O)N[C@@H]([C@@H](O)c2ccccc2)C(=O)N2CCC[C@H]2C(=O)N[C@@H]([C@@H](O)c2ccc(OC)cc2)C(=O)N[C@H](Cc2c[nH]c3ccccc23)C1=O)C(N)=O)[C@@H](C)O | > 10 | > 10
5 | 64 (≈ 74.7 µg/mL) | 32 (≈ 37.4 µg/mL) | > 128 | 64 (≈ 74.7 µg/mL) | C/C=C\c1ccccc1/C=C\C(=O)N[C@H](C(=O)N[C@@H](C)C(=O)N[C@H](C(N)=O)[C@H](C)C(=O)N1CC(=O)N[C@@H]([C@@H](O)c2ccccc2)C(=O)N2CCC[C@H]2C(=O)N[C@@H]([C@@H](O)c2ccc(OC)cc2)C(=O)N[C@H](Cc2c[nH]c3ccccc23)C1=O)[C@@H](C)O | > 10 | > 10
6 | > 128 | 64 (≈ 75 µg/mL) | > 128 | > 128 | C/C=C\c1ccccc1/C=C\C(=O)N[C@H](C(=O)N[C@@H](C)C(=O)N[C@@H](CC(=O)O)C(=O)NCC(=O)N[C@H](C(=O)N1CCC[C@H]1C(=O)N[C@H](C(=O)N[C@H](Cc1c[nH]c2ccccc12)C(N)=O)[C@@H](O)c1ccc(OC)cc1)[C@@H](O)c1ccccc1)[C@@H](C)O | > 10 | > 10
7 | > 128 | 64 (≈ 75 µg/mL) | > 128 | > 128 | C/C=C\c1ccccc1/C=C/C(=O)N[C@H](C(=O)N[C@@H](C)C(=O)N[C@@H](CC(=O)O)C(=O)NCC(=O)N[C@H](C(=O)N1CCC[C@H]1C(=O)N[C@H](C(=O)N[C@H](Cc1c[nH]c2ccccc12)C(N)=O)[C@@H](O)c1ccc(OC)cc1)[C@@H](O)c1ccccc1)[C@@H](C)O | > 10 | > 10
8 | < 2 | < 2 | < 2 | < 2 | NC[C@H]1O[C@H](O[C@H]2[C@H](O)[C@@H](O[C@H]3O[C@H](CO)[C@@H](O)[C@H](N)[C@H]3O)[C@H](N)C[C@@H]2N)[C@H](O)[C@@H](O)[C@@H]1O [KANAMYCIN] | – | –

Row | SMILES | MIC (Bacillus subtilis) [µM] | MIC (Staphylococcus aureus) [µM] | MIC (Escherichia coli) [µM] | MIC [1] [µM] | IC50 (A549) [µM] | IC50 (K562) [µM]
9 | C/C=C\c1ccccc1/C=C/C(=O)N[C@@H]1C(=O)N[C@@H](C)C(=O)N[C@@H]([C@H](C)C(=O)O)C(=O)NCC(=O)N[C@@H]([C@@H](O)c2ccccc2)C(=O)N2CCC[C@H]2C(=O)N[C@@H]([C@@H](O)c2ccc(OC)cc2)C(=O)N[C@H](Cc2c[nH]c3ccccc23)C(=O)N[C@@H](O)C(=O)N[C@H](CC(C)C)C(=O)N[C@H]([C@@H](O)C(C)C)C(=O)O[C@@H]1C | 16 (≈ 23.7 µg/mL) | 16 (≈ 23.7 µg/mL) | > 128 | 32 (≈ 47.5 µg/mL) | > 10 | > 10

From ChEMBL document CHEMBL5233290, “Anulamycins A-F, Cinnamoyl-Containing Peptides from a Lake Sediment Derived Streptomyces” (J Nat Prod, 2023)
